{"source": "patent US7399888B2", "about": "“Anticonvulsant compounds” (priority 2006, dated 2008)", "key": {"NMRI mice [1]": {"test_system": "NMRI mice", "experiment": "subcutaneous pentylenetetrazole (scPTZ) induced seizure model", "type": "in vivo", "details": "tested in mixture form", "procedure": "(§1) Male NMRI albino mice weighing 19-22 g were housed in an environmentally regulated room on a 12 h light: 12 h dark cycle with 25±1° C. and had free access to food and water. The use of animals in experimental protocol was approved by the research committee of the ICCS, University of Karachi, in accordance with the international guidelines for the care and use of laboratory animals. The anticonvulsant activity of compounds in mixture form was determined after intraperitoneal administration to NMRI mice weighing 19-22 g. Maximal electroshock (MES) and subcutaneous pentylenetetrazole (scPTZ) induced seizure models were used to test the anticonvulsant properties of compounds. […] Protection against HLTE in MEST predicts the ability of a testing material to prevent the spread of seizures discharge from the epileptic focus in brain in additions effectiveness in MEST correlates with efficacy in suppressing the generalized tonic-clonic and partial seizures. […] Anticonvulsant activity in the scPTZ test identifies compounds that can raise seizure threshold in the brain."}, "NMRI mice [2]": {"test_system": "NMRI mice", "experiment": "Maximal electroshock (MES) induced seizure model", "type": "in vivo", "details": "tested in mixture form", "procedure": "as §1"}}, "data": [{"smiles": "CC(=O)/C=C1/C=C(C)CC(C)(C)C1", "note": "[Isoxylitone A, 2-Propanone 1-(3,5,5-trimethyl-2-cyclohexen-1-ylidene) (1E)]", "values": [{"measurement": "prevention of convulsions in chemically-induced seizure model", "setting": "NMRI mice [1]", "value": "able to prevent convulsions"}, {"measurement": "prevention of convulsions in electrically-induced seizure model", "setting": "NMRI mice [2]", "value": "able to prevent convulsions"}]}, {"smiles": "CC(=O)/C=C1\\C=C(C)CC(C)(C)C1", "note": "[Isoxylitone B, 2-Propanone, 1-(3,5,5-trimethyl-2-cyclohexen-1-ylidene)-, (1Z)]", "values": [{"measurement": "prevention of convulsions in chemically-induced seizure model", "setting": "NMRI mice [1]", "value": "able to prevent convulsions"}, {"measurement": "prevention of convulsions in electrically-induced seizure model", "setting": "NMRI mice [2]", "value": "able to prevent convulsions"}]}]}
